# Test results from patent US9302999B2, “Substituted triazoles as herbicides” (E. I. DU PONT DE NEMOURS AND COMPANY, priority 2012, dated 2016).
# Experiments:
# Assay type in all cases: in vivo
# [1] = test system: nutsedge, yellow (yellow nutsedge, Cyperus esculentus); assay: Test C pre-/postemergence: nutsedge, yellow
# Outline: (§1)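 Preemergence on seeds in loam/sand, postemergence on 2–18 cm (1–4-leaf) plants in peat-based medium; compounds in non-phytotoxic solvent with surfactant. After 13–15 days in greenhouse, visual rating versus controls, 0 (no effect) to 100 (complete control).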
# [2] = test system: barnyardgrass (Echinochloa crus-galli); assay: Test A pre-/postemergence: barnyardgrass
# Outline: (§2)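 Each species received preemergence soil-directed spraying and, at the same time, postemergence treatment of seedlings 2–10 cm tall. Formulation: non-phytotoxic solvent mixture including surfactant. Response assessed visually about ten days on, relative to untreated controls, 0–100 scale.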
# [3] = test system: pigweed (Amaranthus retroflexus); assay: Test C pre-/postemergence: pigweed
# Outline: as §1
# [4] = test system: crabgrass, large (large crabgrass, Digitaria sanguinalis); assay: Test A pre-/postemergence: crabgrass, large
# Outline: as §2
# [5] = test system: large crabgrass (Digitaria sanguinalis); assay: Test C pre-/postemergence: large crabgrass
# Outline: as §1
# corn (Zea mays) = assay: Test A pre-/postemergence: corn
# Outline: as §2
# [6] = test system: galium (catchweed bedstraw, Galium aparine); assay: Test C pre-/postemergence: galium
# Outline: as §1
# wild oat (Avena fatua) = assay: Test C pre-/postemergence: wild oat
# Outline: as §1
# [7] = test system: johnsongrass (Sorghum halepense); assay: Test C pre-/postemergence: johnsongrass
# Outline: as §1
# [8] = test system: ryegrass, Italian (Italian ryegrass, Lolium multiflorum); assay: Test C pre-/postemergence: ryegrass, Italian
# Outline: as §1
# [9] = test system: lambsquarters (Chenopodium album); assay: Test C pre-/postemergence: lambsquarters
# Outline: as §1
# [10] = test system: blackgrass (Alopecurus myosuroides); assay: Test C pre-/postemergence: blackgrass
# Outline: as §1
# [11] = Preemergence, 31 g ai/ha, scale of 0 to 100, 0 is no effect, 100 is complete control
# [12] = Preemergence, 62 g ai/ha, scale of 0 to 100, 0 is no effect, 100 is complete control
# [13] = Preemergence, 125 g ai/ha, scale 0 to 100, 0 no effect, 100 complete control
# [14] = Preemergence, 250 g ai/ha, scale 0 to 100, 0 no effect, 100 complete control
# [15] = Postemergence, 125 g ai/ha, 0 to 100 scale, 0 is no effect, 100 is complete control
# [16] = Postemergence, 500 g ai/ha, visual rating on 0 to 100 scale (0 no effect, 100 complete control), approximately ten days
# [17] = Preemergence, 125 g ai/ha, 0 to 100 scale where 0 is no effect and 100 is complete control
# [18] = Preemergence, 500 g ai/ha, 0 to 100 scale (0 no effect, 100 complete control)
# [19] = Postemergence, 31 g ai/ha, scale 0 to 100 (0 no effect, 100 complete control)
# [20] = Postemergence, 62 g ai/ha, scale 0 to 100 (0 no effect, 100 complete control)
# [21] = Postemergence, 125 g ai/ha, scale 0 to 100, 0 no effect, 100 complete control
# [22] = Postemergence, 250 g ai/ha, scale 0 to 100 (0 no effect, 100 complete control)
# [23] = Preemergence, 31 g ai/ha, scale 0 (no effect) to 100 (complete control)
# [24] = Postemergence, 500 g ai/ha, 0 to 100 scale, 0 is no effect, 100 is complete control
# [25] = Postemergence, 250 g ai/ha, scale 0 to 100
smiles,measurement,setting,value
Cc1nn(-c2ccc(F)c(C(F)(F)F)c2)nc1Oc1ccnc(C(F)(F)F)c1 [Compound 147],"Plant response rating, Nutsedge, Yellow",[1]; [11],0
same,"Plant response rating, Nutsedge, Yellow",[1]; [12],0
same,"Plant response rating, Nutsedge, Yellow",[1]; [13],0
same,"Plant response rating, Nutsedge, Yellow",[1]; [14],15
same,Barnyardgrass plant response rating,[2]; [15],80
same,Barnyardgrass plant response rating,[2]; [16],80
same,"Plant response rating, Barnyardgrass",[2]; [17],90
same,"Plant response rating, Barnyardgrass",[2]; [18],100
same,"Plant response rating, Pigweed",[3]; [11],100
same,"Plant response rating, Pigweed",[3]; [12],100
same,"Plant response rating, Pigweed",[3]; [13],100
same,"Plant response rating, Pigweed",[3]; [14],100
same,"Crabgrass, Large plant response rating",[4]; [15],80
same,"Crabgrass, Large plant response rating",[4]; [16],90
same,"Plant response rating, Crabgrass, Large",[4]; [17],100
same,"Plant response rating, Crabgrass, Large",[4]; [18],100
same,"Plant response rating, Crabgrass, Large",[5]; [11],98
same,"Plant response rating, Crabgrass, Large",[5]; [12],100
same,"Plant response rating, Crabgrass, Large",[5]; [13],100
same,"Plant response rating, Crabgrass, Large",[5]; [14],100
same,Corn plant response rating,corn (Zea mays); [15],30
same,Corn plant response rating,corn (Zea mays); [16],40
same,"Plant response rating, Corn",corn (Zea mays); [17],10
same,"Plant response rating, Corn",corn (Zea mays); [18],30
same,"Plant response rating, Galium",[6]; [11],100
same,"Plant response rating, Galium",[6]; [12],100
same,"Plant response rating, Galium",[6]; [13],100
same,"Plant response rating, Galium",[6]; [14],100
same,"Plant response rating, Oat, Wild",wild oat (Avena fatua); [11],60
same,"Plant response rating, Oat, Wild",wild oat (Avena fatua); [12],70
same,"Plant response rating, Oat, Wild",wild oat (Avena fatua); [13],85
same,"Plant response rating, Oat, Wild",wild oat (Avena fatua); [14],95
same,"Plant response rating, Johnsongrass",[7]; [11],40
same,"Plant response rating, Johnsongrass",[7]; [12],55
same,"Plant response rating, Johnsongrass",[7]; [13],95
same,"Plant response rating, Johnsongrass",[7]; [14],98
same,"Plant response rating, Ryegrass, Italian",[8]; [11],10
same,"Plant response rating, Ryegrass, Italian",[8]; [12],50
same,"Plant response rating, Ryegrass, Italian",[8]; [13],85
same,"Plant response rating, Ryegrass, Italian",[8]; [14],95
same,"Plant response rating, Lambsquarters",[9]; [11],35
same,"Plant response rating, Lambsquarters",[9]; [12],45
same,"Plant response rating, Lambsquarters",[9]; [13],80
same,"Plant response rating, Lambsquarters",[9]; [14],80
same,"Plant response rating, Blackgrass",[10]; [11],50
same,"Plant response rating, Blackgrass",[10]; [12],85
same,"Plant response rating, Blackgrass",[10]; [13],90
same,"Plant response rating, Blackgrass",[10]; [14],90
CCCc1nn(-c2ccc(C(F)(F)F)c(F)c2)nc1Oc1ccnc(C(F)(F)F)c1 [Compound 185],"Plant response rating, Nutsedge, Yellow",[1]; [19],10
same,"Plant response rating, Nutsedge, Yellow",[1]; [20],10
same,"Plant response rating, Nutsedge, Yellow",[1]; [21],10
same,"Plant response rating, Nutsedge, Yellow",[1]; [22],15
same,"Plant response rating, Nutsedge, Yellow",[1]; [23],0
same,"Plant response rating, Nutsedge, Yellow",[1]; [12],0
same,"Plant response rating, Nutsedge, Yellow",[1]; [13],0
same,"Plant response rating, Nutsedge, Yellow",[1]; [14],5
same,"Plant response rating, Barnyardgrass",[2]; [15],70
same,Barnyardgrass plant response rating,[2]; [24],90
same,"Plant response rating, Barnyardgrass",[2]; [17],100
same,"Plant response rating, Barnyardgrass",[2]; [18],100
same,"Plant response rating, Pigweed",[3]; [19],98
same,"Plant response rating, Pigweed",[3]; [20],98
same,"Plant response rating, Pigweed",[3]; [21],100
same,"Plant response rating, Pigweed",[3]; [22],100
same,"Plant response rating, Pigweed",[3]; [23],100
same,"Plant response rating, Pigweed",[3]; [12],100
same,"Plant response rating, Pigweed",[3]; [13],100
same,"Plant response rating, Pigweed",[3]; [14],100
same,"Plant response rating, Crabgrass, Large",[4]; [15],90
same,"Crabgrass, Large plant response rating",[4]; [24],90
same,"Plant response rating, Crabgrass, Large",[4]; [17],100
same,"Plant response rating, Crabgrass, Large",[4]; [18],100
same,"Plant response rating, Crabgrass, Large",[5]; [19],25
same,"Plant response rating, Crabgrass, Large",[5]; [20],40
same,"Plant response rating, Crabgrass, Large",[5]; [21],60
same,"Plant response rating, Crabgrass, Large",[5]; [25],80
same,"Plant response rating, Crabgrass, Large",[5]; [23],100
same,"Plant response rating, Crabgrass, Large",[5]; [12],100
same,"Plant response rating, Crabgrass, Large",[5]; [13],100
same,"Plant response rating, Crabgrass, Large",[5]; [14],100
same,"Plant response rating, Corn",corn (Zea mays); [15],20
same,Corn plant response rating,corn (Zea mays); [24],50
same,"Plant response rating, Corn",corn (Zea mays); [17],10
same,"Plant response rating, Corn",corn (Zea mays); [18],30
same,"Plant response rating, Galium",[6]; [19],70
same,"Plant response rating, Galium",[6]; [20],80
same,"Plant response rating, Galium",[6]; [21],90
same,"Plant response rating, Galium",[6]; [22],90
same,"Plant response rating, Galium",[6]; [23],80
same,"Plant response rating, Galium",[6]; [12],100
same,"Plant response rating, Galium",[6]; [13],100
same,"Plant response rating, Galium",[6]; [14],100
same,"Plant response rating, Oat, Wild",wild oat (Avena fatua); [19],25
same,"Plant response rating, Oat, Wild",wild oat (Avena fatua); [20],30
same,"Plant response rating, Oat, Wild",wild oat (Avena fatua); [21],55
same,"Plant response rating, Oat, Wild",wild oat (Avena fatua); [22],60
same,"Plant response rating, Johnsongrass",[7]; [19],10
same,"Plant response rating, Johnsongrass",[7]; [20],30
same,"Plant response rating, Johnsongrass",[7]; [21],65
same,"Plant response rating, Johnsongrass",[7]; [22],75
same,"Plant response rating, Johnsongrass",[7]; [23],25
same,"Plant response rating, Johnsongrass",[7]; [12],70
same,"Plant response rating, Johnsongrass",[7]; [13],80
same,"Plant response rating, Johnsongrass",[7]; [14],100
same,"Plant response rating, Ryegrass, Italian",[8]; [19],10
same,"Plant response rating, Ryegrass, Italian",[8]; [20],10
same,"Plant response rating, Ryegrass, Italian",[8]; [21],25
same,"Plant response rating, Ryegrass, Italian",[8]; [22],35
same,"Plant response rating, Ryegrass, Italian",[8]; [23],90
same,"Plant response rating, Ryegrass, Italian",[8]; [12],100
same,"Plant response rating, Ryegrass, Italian",[8]; [13],100
same,"Plant response rating, Ryegrass, Italian",[8]; [14],100
same,"Plant response rating, Lambsquarters",[9]; [19],80
same,"Plant response rating, Lambsquarters",[9]; [20],80
same,"Plant response rating, Lambsquarters",[9]; [21],85
same,"Plant response rating, Lambsquarters",[9]; [22],95
same,"Plant response rating, Lambsquarters",[9]; [23],100
same,"Plant response rating, Lambsquarters",[9]; [12],100
same,"Plant response rating, Lambsquarters",[9]; [13],100
same,"Plant response rating, Lambsquarters",[9]; [14],100
same,"Plant response rating, Blackgrass",[10]; [19],20
same,"Plant response rating, Blackgrass",[10]; [20],40
same,"Plant response rating, Blackgrass",[10]; [21],50
same,"Plant response rating, Blackgrass",[10]; [25],50
same,"Plant response rating, Blackgrass",[10]; [23],90
same,"Plant response rating, Blackgrass",[10]; [12],95
same,"Plant response rating, Blackgrass",[10]; [13],95
same,"Plant response rating, Blackgrass",[10]; [14],98
